B1: Ceruloplasmine (protein, UniProt P00450 20-1065, looked up)
Ceruloplasmin: KEKHYYIGIIETTWDYASDHGEKKLISVDTEHSNIYLQNGPDRIGRLYKKALYLQYTDETFRTTIEKPVWLGFLGPIIKAETGDKVYVHLKNLASRPYTFHSHGITYYKEHEGAIYPDNTTDFQRADDKVYPGEQYTYMLLATEEQSPGEGDGNCVTRIYHSHIDAPKDIASGLIGPLIICKKDSLDKEKEKHIDREFVVMFSVVDENFSWYLEDNIKTYCSEPEKVDKDNEDFQESNRMYSVNGYTFGSLPGLSMCAEDRVKWYLFGMGNEVDVHAAFFHGQALTNKNYRIDTINLFPATLFDAYMVAQNPGEWMLSCQNLNHLKAGLQAFFQVQECNKSSSKDNIRGKHVRHYYIAAEEIIWNYAPSGIDIFTKENLTAPGSDSAVFFEQGTTRIGGSYKKLVYREYTDASFTNRKERGPEEEHLGILGPVIWAEVGDTIRVTFHNKGAYPLSIEPIGVRFNKNNEGTYYSPNYNPQSRSVPPSASHVAPTETFTYEWTVPKEVGPTNADPVCLAKMYYSAVEPTKDIFTGLIGPMKICKKGSLHANGRQKDVDKEFYLFPTVFDENESLLLEDNIRMFTTAPDQVDKEDEDFQESNKMHSMNGFMYGNQPGLTMCKGDSVVWYLFSAGNEADVHGIYFSGNTYLWRGERRDTANLFPQTSLTLHMWPDTEGTFNVECLTTDHYTGGMKQKYTVNQCRRQSEDSTFYLGERTYYIAAVEVEWDYSPQREWEKELHHLQEQNVSNAFLDKGEFYIGSKYKKVVYRQYTDSTFRVPVERKAEEEHLGILGPQLHADVGDKVKIIFKNMATRPYSIHAHGVQTESSTVTPTLPGETLTYVWKIPERSGAGTEDSACIPWAYYSTVDQVKDLYSGLIGPLIVCRRPYLKVFNPRRKLEFALLFLVFDENESWYLDDNIKTYSDHPEKVNKDDEEFIESNKMHAINGRMFGNLQGLTMHVGDEVNWYLMGMGNEIDLHTVHFHGHSFQYKHRGVYSSDVFDIFPGTYQTLEMFPRTPGIWLLHCHVTDHIHAGMETTYTVLQNEDTKSG

Experiments:
[1] = target: T1, chST6GalNAc-I (Gallus gallus, UniProt Q92183); experiment: chST6GalNAc-I activity on small acceptor molecules; assay type: biochemical, chicken; conditions: α-D-galacto derivatives as acceptors
T1 construct: made in house; host or cells: insect cells
T1 sequence (Q92183 whole entry): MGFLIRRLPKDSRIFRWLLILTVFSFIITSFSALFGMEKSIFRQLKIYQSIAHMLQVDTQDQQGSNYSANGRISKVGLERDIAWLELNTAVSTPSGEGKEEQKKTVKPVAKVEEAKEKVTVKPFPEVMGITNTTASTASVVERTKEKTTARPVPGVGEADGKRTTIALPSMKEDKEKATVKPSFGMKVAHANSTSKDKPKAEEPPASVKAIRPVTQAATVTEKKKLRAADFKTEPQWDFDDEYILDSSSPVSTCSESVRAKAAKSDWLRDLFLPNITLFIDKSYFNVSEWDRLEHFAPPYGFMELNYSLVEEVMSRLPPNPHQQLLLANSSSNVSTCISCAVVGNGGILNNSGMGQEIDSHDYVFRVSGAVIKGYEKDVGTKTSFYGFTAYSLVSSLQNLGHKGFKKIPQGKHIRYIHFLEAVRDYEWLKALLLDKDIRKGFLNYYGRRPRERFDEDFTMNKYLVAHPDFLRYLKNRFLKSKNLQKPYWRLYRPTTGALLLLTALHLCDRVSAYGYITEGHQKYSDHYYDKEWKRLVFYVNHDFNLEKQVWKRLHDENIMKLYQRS
Description: The inventors have previously reported the cloning, expression, and characterization of chicken ST6GalNAc-I and its use in preparative synthesis of the O-linked sialoside antigens, STn-, α(2-6)SiaT-, α(2-3)SiaT- and Di-SiaT-antigen. Blixt, O.; Allin, K.; Pereira, L.; Datta, A. and Paulson, J. C., J. Am. Chem. Soc. 2002, 124, 5739-5746. Briefly, the recombinant enzyme was expressed in insect cells and purified by CDP-sepharose affinity chromatography to generate approximately 10 U/L of cell culture.

[2] = tested on: antibodies in sera of metastatic breast cancer patients; experiment: Glycan array binding of sera of metastatic breast cancer patients; set-up: species or system human; conditions: sera diluted 1:25; for binding of antibodies from breast cancer patients to glycans: 9 metastatic breast cancer patients, IgG, IgM and IgA detected; for level of serum antibodies against the glycan in MBC patients compared to healthy individuals: 9 MBC patients vs ten healthy individuals
Procedure: Individual (not pooled) sera were collected from 9 patients who were diagnosed with metastatic breast cancer (MBC). Blood samples were collected before treatment, so that therapeutic intervention would not interfere with patient immune responses. One patient with breast cancer but with good prognosis (IDC, Stage 1) was also included in the study. As control, or “healthy” sera, sera from ten healthy individuals, 5 female and 5 male, with no known malignancies was collected.
Sera were diluted 1:25 with PBS containing 3% BSA, and placed on the glycan array slide in humidified chamber at room temperature for 90 min. The glycan array slide was then rinsed gently with PBS/0.05% Tween, incubated with biotinylated goat antibody against human IgG, IgM and IgA, rinsed in PBS/0.05% Tween, and incubated with streptavidin-Alexa488 fluorescent dye. Following rinses in PBS/0.05% Tween and H2O, glycan array slides were dried and scanned using the commercial DNA array scanner. […] Signal to background was typically greater 50:1 and no background subtractions were performed. Data were plotted using MS Excel software.

[3] = tested on: Human anti-HIV 2G12 monoclonal antibody; experiment: Glycan array binding of 2G12; conditions: 2G12 (30 μg/mL) pre-complexed with goat anti-human-IgG-FITC (15 μg/mL)
Description: Glycan array fabrication.
Glycan Binding Protein binding assay.
Image acquisition and signal processing. […] Data were plotted using MS Excel software.

[4] = target: Con A (Canavalia ensiformis, UniProt P02866); conditions: printing times up to 5 hours
Procedure: Glycan Binding Protein binding assay. Printed slides were analyzed without any further modification of the surface. Slides were incubated in either a one step procedure with labeled proteins, or a sandwich procedure in which the bound glycan binding protein (GBP) was overlaid with labeled secondary antibodies or GBP's pre-complexed with labeled antibodies. GBP's were added at a concentration of 5-50 μg/mL in buffer (usually PBS containing 0.005-0.5% Tween-20). Secondary antibodies (10 μg/mL in PBS) were overlaid on bound GBP. GBP-antibody pre-complexes were prepared in a molar ratio of 1:0.5:0.25 (5-50 μg/mL) for GBP:2° antibody:3° antibody, respectively (15 min on ice). […] Slides were subsequently washed by successive rinses in (i) PBS-Tween (0.05%), (ii) PBS and (iii) de-ionized water, then immediately subjected to imaging.
Image acquisition and signal processing. Fluorescence intensities were detected using a ScanArray 5000 (Perkin Elmer, Boston, Mass.) confocal scanner and image analyses were carried out using ImaGene image analysis software (BioDiscovery Inc, El Segundo, Calif.).
Binding of fluorescein-labeled concanavalin A (con A) was used as a measure of ligand coupling.

| Molecule | binding of antibodies from breast cancer patients to glycans [2] | other results |
| --- | --- | --- |
| CC(=O)N[C@H]1C(O)O[C@H](CO)[C@H](O)[C@@H]1O (stereo partly drawn) [D-GalNAc] | – | chST6GalNAc-I activity, cpm [1]: 0 cpm; chST6GalNAc-I activity, nmol/mg x min^−1 [1]: 0.00 nmol/mg x min^−1 |
| (Ab4GNb)3#sp1 Tri-LacNAc [glycan 9] | will also bind | – |
| Ab3ANb4[NNa3]Ab4Gb#sp1 GM1 [glycan 58] | bind | level of serum antibodies against the glycan in MBC patients compared to healthy individuals [2]: higher than in the healthy individuals |
| Ab4GNb3Ab4GNb#sp1 LacNAc-LacNAc [glycan 76] | will also bind | – |
| Ab4GNb3Ab4[Fa3]GNb3Ab4[Fa3]GNb#sp1 LacNAc-LeX-LeX [glycan 73] | will also bind | – |
| Fa2Ab3Anb3Aa4Ab4G#sp3 Globo-H [glycan 97] | bind | level of serum antibodies against the glycan in MBC patients compared to healthy individuals [2]: higher than in the healthy individuals |
| Fa2Ab4GNb3Ab4GNb3Ab4GNb#sp1 H-type2-LacNAc-LacNAc [glycan 107] | will also bind | – |
| Fa2Ab4GNb3Ab4GNb#sp1 H-type-2-LacNAc [glycan 106] | will also bind | – |
| GNb3Ab4GNb#sp1 GlcNAcβ3LacNAc [glycan 124] | will also bind | – |
| GNb3Ab4Gb#sp1 LNT-2 [glycan 123] | bind | level of serum antibodies against the glycan in MBC patients compared to healthy individuals [2]: higher than in the healthy individuals |
| Ma2Ma3[Ma2Ma6]Ma#sp3 [glycan 136] | – | binding of 2G12 to glycans on the array [3]: strong binding; Rel. spec. (relative binding activity of 2G12) ([3]; mannose containing glycans on the array): +++ (+++ >25,000); variation in maximal binding of con A [4]: less than 10% |
| Man-9#aa Man9-aminoacid [glycan 145] | – | binding of 2G12 to glycans on the array [3]: smaller level of binding |
| NJa6ANa#sp2 Neu5Gc6GalNAc (STn) [glycan 155] | bind | – |
| NNa3Ab4GNb3Ab4GNb3Ab4GNb#sp1 3′Sialyl-tri-LacNAc [glycan 180] | will also bind | – |
| NNa3Ab4GNb3Ab4GNb#sp1 3′SialylDiLacNAc [glycan 179] | will also bind | – |
| NNa3Ab4[Fa3]GNb3Ab4GNb#sp1 SLeXLacNAc [glycan 174] | will also bind | – |
| NNa6ANa#sp2 6SiaβGalNAc [glycan 190] | bind | level of serum antibodies against the glycan in MBC patients compared to healthy individuals [2]: significantly higher levels |
| NNa6Ab4GNb3Ab4GNb#sp1 6SiaLacNAc-LacNAc [glycan 189] | will also bind | – |
| NNa6Ab4GNb3Ab4[Fa3]GNb3Ab4[Fa3]GNb#sp1 6Sia-LacNAc-LeX-LeX [glycan 188] | will also bind | – |
| B1 | bind | level of serum antibodies against the glycan in MBC patients compared to healthy individuals [2]: significantly higher levels |

From patent US20080019968A1, “DETECTION, PREVENTION AND TREATMENT OF BREAST CANCER” (The scripps Reasearch Institute, priority 2004, published 2008)
